Source: publication PMC7995547, “ω‐Imidazolyl‐alkyl derivatives as new preclinical drug candidates for treating non‐alcoholic steatohepatitis” (Physiological Reports, 2021)

How the values were obtained:
Format in all cases: in vivo, Wistar rats
[1] = tested on: HFD‐induced NASH rat model (liver); test: Liver histopathology, semi‐quantitative evaluation, NASH rat model; parameters: key to Steatosis score / Balooning score: 0, none; 1, ≤25%; 2, 26–50%; 3, ≥51–75% of liver parenchyma
Experimental: (§1) Studies were done using Wistar rats of female sex by the Institute of Pharmacology and Biochemistry at Minsk. The animals were 80–90 days old and weighed 180–200 g. They had free access to a liquid Lieber‐DeCarli (LDC) diet (Lieber et al., 2004) and were housed under standard conditions meaning a 12‐h light/dark cycle at 22 ± 2°C and 55 ± 5% humidity.
(§2) Group 1 was designated as the first control group; it was fed a normal standard solid diet. Group 2, as the second control group, was fed a standard amount of fat as a part of the liquid “physiological,” non‐high fat LDC diet. All other groups received the liquid ‘disease‐causing’ LDC diet (Table 2), including a high content of unsaturated fatty acids.
(§3) Both LDC diets were in a liquid form as produced by ssniff‐Spezialdiäten GmbH, Soest (Germany). The feed was provided over the entire experimental period of 16 weeks; however, the corresponding experimental substances were only administered in the last four weeks (Figure 3).
(§4) The experimental substances I‐ol, I‐an, and UDCA were dissolved in a 0.8% aqueous HPMC gel to obtain the following concentrations: (1) I‐ol at 0.4, 4, and 40 mg/kg body weight (b.w.), (2) I‐an at 0.4, 4, and 40 mg/kg b.w., and (3) UDCA at 40 mg/kg b.w. The Group‐2 and −3 rats received only HPMC as placebo. Each test encompassed 6–8 rats that were put up in a separate cage. The rats were fed ad libitum, and their intake per cage was controlled daily. In order to ensure an exact daily reproducible dosage, the experimental substances or only HPMC was administered intragastrically via oral gavage. Basically, the drug therapy of a chronic disease is the more efficient the higher the adherence of the affected patients. This is generally higher with peroral administration than with any other form of application. At the end of the experiment, the animals were sacrificed under fasting conditions, by aorta dissection and exsanguination, after anesthetizing with an intraperitoneal injection of 5% pentobarbital solution.
Pieces of liver tissue measuring 1 × 2 × 0.5 mm were chosen randomly and fixed for a week in the mixture of 1% formaldehyde and 1% paraformaldehyde in Sorensen's phosphate buffer (pH 7.4) (Morphisto GmbH, Frankfurt/Main). After this the pieces were kept in 2.5% glutaraldehyde in same buffer, rinsed and then post‐fixed in 1% solution of osmium tetroxide on the Sorensen's phosphate buffer (pH 7.4). After fixation, the liver samples were dehydrated and embedded in the pre‐polymerized mixture of methyl methacrylate and butyl methacrylate (1:4, v/v) containing 2,4‐dichlorbenzoyl peroxide as a catalyst.
[…] A semi‐quantitative evaluation of the sections was performed according to the procedure described by Koppe et al. (Koppe et al., 2004).

[2] = tested on: HFD‐induced NASH rat model (serum); test: Liver enzyme activities and bilirubin in serum, NASH rat model
Experimental: as §1, §2, §3, §4
(§5) The activities of the liver enzymes aspartate aminotransferase (AST), alanine aminotransferase (ALT), alkaline phosphatase (AP), and γ‐glutamyl transferase (γ‐GT) as well as bilirubin and triglyceride levels in the serum were determined as described by the instructions of BIO‐LA‐tests kit (Erba Lachema, Brno, Czech Republic).

[3] = tested on: HFD‐induced NASH rat model (liver and serum); test: End products of fat metabolism (liver and serum lipids), NASH rat model; conditions: UDCA 40 mg/kg b.w.
Experimental: as §1, §2, §3, §4, §5
Extraction of lipids was performed using a solvent composed of chloroform and methanol (2:1 v/v). Thin‐layer chromatography (TLC) was used to separate off neutral lipids and phospholipids. Silicagel G 60 plates (0.25 mm thick) were used. The lipids were separated by ascending chromatography in a system composed of hexane:diethylic ether:glacial acetic acid (73:25:2; v/v/v). They were visualized by iodine vapor and the spots corresponding to triglycerides and cholesterol were scraped off and eluted with methanol for spectrophotometric evaluation. Triglyceride and cholesterol levels were determined using the BIO‐LA‐test kit (Erba Lachema, Brno, Czech Republic). Phospholipid concentration was determined by measuring the levels of phosphomolybdate using an inorganic phosphate reagent containing molybdate (Findlay & Evans, 1987). VLDL level was determined by using the manganese precipitation method (Burstein & Scholnick, 1973) after partial modification (Hirano et al., 2003).

[4] = tested on: HFD‐induced NASH rat model (liver); test: Oxidative stress (ROS status) in the liver, HFD-induced NASH rat model; conditions: liver
Experimental: as §1
The rats were divided into 10 groups based on the diets and experimental substances administered (Figure 2).
as §2, §3, §4
The formation of ROS in the rat liver was measured using NADPH‐induced chemiluminescence as described by Müller‐Peddinghaus et al. (Muller‐Peddinghaus, 1987). Luminol and lucigenin were used for detecting the superoxide radical anion (SRA) and hydrogen peroxide. Liver pieces were homogenized in 0.1 M sodium phosphate buffer, pH 7.4; the homogenates were centrifuged at 9,000 × g at 0°C; and aliquots were used for subsequent measurements. Reduced glutathione (GSH) was estimated via a modified Ellman's method (Ellman, 1959), in which 0.2 mL of the liver homogenate supernatant was added to 1.6 mL of an EDTA/sodium phosphoric acid solution and the absorbance noted at 412 nm against blank values. GSH solution produced immediately before application served as the standard. The end products of the lipid peroxidation reaction were equivalent to the thiobarbituric acid‐reacting substances (TBARS), and their concentration was measured according to the method described by Buege et al. (Buege & Aust, 1978). Enzymatic activities of microsomal glutathione reductase (GR) and cytosolic glutathione peroxidase (GPx) were measured according to the methodology of Buko et al. (Buko et al., 2002). Catalase activity was determined according to the spectroscopic methodology described by Beers et al. (Beers & Sizer, 1952) using hydrogen peroxide as the substrate.

[5] = tested on: HFD‐induced NASH rat model (liver); test: Area of connective tissue in the liver (Mallory‐Azan staining), NASH rat model; conditions: compound overall
Experimental: as §1, §2, §3, §4
Liver tissue sections were subject to the Mallory‐Azan (Heidenhain Azan) staining method for visualizing the connective tissues. This method was a modification of the original Mallory staining protocol, wherein azocarmin with a mixture of aniline blue and orange G was used. In this method, the collagen tissue and basophilic granules turn blue, the muscle tissue and acidophilic granules turn orange to red, and the cell nuclei and cytoplasm turn red. Elastic fibers remain unstained; however, they might turn yellow or pink. The proportion of positively stained liver tissue to the total area of the histological slide was determined quantitatively.

[6] = tested on: HFD‐induced NASH rat model (serum); test: Adipocytokines and glucose metabolism in serum, NASH rat model
Experimental: as §1, §2, §3, §4
The concentrations of adiponectin and TNFα were measured using ELISA kits sold by BioCat GmbH (Heidelberg, Germany), whereas the one for determining leptin level was procured from BioVendor Laboratory Medicine Inc. (Brno, Czech Republic). Insulin concentration was determined using the radioimmunoassay kit RIO‐insulin‐PG‐J125 (IBOCH, Minsk, Belarus). Serum glucose level was determined based on the “Accu‐Check Active blood glucose” monitoring method developed by Roche‐Diagnostics.

[7] = 40.0 mg/kg b.w. + HFD, H.E.‐stained liver slices
[8] = serum, average over doses (I‐ol, I‐an), UDCA 40 mg/kg b.w.
[9] = serum, number: highest concentration (40 mg/kg b.w.), words: compound overall
[10] = average over doses (I‐ol, I‐an)
[11] = average over doses (I‐ol, I‐an), UDCA 40 mg/kg b.w.

## C[C@H](CCC(=O)O)[C@H]1CC[C@H]2[C@@H]3[C@@H](O)C[C@@H]4C[C@H](O)CC[C@]4(C)[C@H]3CC[C@]12C [UDCA, ursodeoxycholic acid, reference compound]
[1]; [7]
  Balooning score: 0
  Inflammation score: 1 (1, <5 signs of inflammation)
  Steatosis score: 0–1
[1]; animals with NASH (HFD)
  Effect on liver histology (in words): improved liver histology
[2]; average over doses, UDCA 40 mg/kg b.w.
  Decrease in serum bilirubin level compared to disease group: no therapeutic effect
[2]; [8]
  Decrease in γ‐GT enzymatic activity compared to disease group: 30%
  Reduction of the effect of HFD on γ‐GT activity: 73%
[2]; serum, highest concentrations (40 mg/kg b.w.)
  Decrease in ALT enzymatic activity compared to disease group: 15%
[2]; serum, highest concentrations (40 mg/kg b.w.), b87: dose not stated
  Reduction of the effect of HFD on ALT activity: 50%
[2]; [9]
  Decrease in AP enzymatic activity compared to disease group: no therapeutic effect
  Decrease in AST enzymatic activity compared to disease group: no therapeutic effect
[3]; [10]
  Decrease in liver triglyceride levels compared to disease group: 17%
  Reduction of the effect of HFD on liver triglyceride levels: 39%
[3]; average over doses
  Decrease in liver phospholipid levels compared to disease group: no therapeutic effect
  Decrease in serum LDL cholesterol: non‐significant trend toward lowering the serum LDL level
  Decrease in serum triglyceride levels compared to disease group: no therapeutic effect
[4]; I‐ol, I‐an groups overall, UDCA 40 mg/kg b.w.
  Increase in GR activity compared to disease group: 24%
[4]; average over 0.4, 4, 40 mg/kg b.w. (I‐ol, I‐an), UDCA 40 mg/kg b.w., oral gavage daily, last 4 of 16 weeks HFD
  Decrease in SRA level compared to disease group: 30%
[4]; [11]
  Decrease in TBARS level compared to disease group: 27%
  Reduction of the effect of HFD on the SRA level: 84%
  Reduction of the effect of HFD on the TBARS level: 63%
[4]; compound overall
  Effect on GSH level (in words): overall ineffective
[4]; highest concentration (40 mg/kg b.w.)
  Decrease in hydrogen peroxide level compared to disease group: no significant effect
[4]; relative to the effect of HFD
  Effect of HFD nullified, GR activity increased by (on an average): 99%
[5]
  Effect on area of connective tissue in the liver (in words): no therapeutic effect
[6]; 40 mg/kg b.w.
  Decrease in serum glucose level: 26%
  Reversal of the effect of HFD on serum glucose level: 100%
[6]; average over doses (I‐ol), UDCA 40 mg/kg b.w.
  Reduction of the effect of HFD on serum TNF‐α level: 75%
[6]; [11]
  Decrease in serum TNF‐α level compared to disease group: 56%
  Decrease in serum leptin compared to disease group: 21%
  Increase in serum adiponectin compared to disease group: 42%
[6]; average over doses (I‐ol, I‐an), UDCA 40 mg/kg b.w. (elevated the concentration by)
  Reduction of the effect of HFD on serum adiponectin: 52%
[6]; average over doses (I‐ol, I‐an), UDCA 40 mg/kg b.w. (reduced leptin concentration)
  Reduction of the effect of HFD on serum leptin: 72%
